The source of these data is patent publication US20240423973A1, “COMPOUNDS, PHARMACEUTICAL COMPOSITIONS, AND METHODS FOR THE TREATMENT, PREVENTION, OR MANAGEMENT OF HYPERPROLIFERATIVE DISORDERS” (VINCERX PHARMA GMBH, priority 2021, published 2024).

A value given as a limit tells only on which side of the number the result lay.

For series [1], the system named is 786-O. The series can be described thus: Cytotoxicity in vitro in the presence and absence of elastase (MTT assay). It is filed as cell-based, human. The conditions noted are these: 786-O cells, 72 h. The protocol: (§1) Cultivation of cells was performed according to standard procedures with the media recommended by the provider. The cells, in a total volume of 100 μL, were seeded in a 96-well plate with a white bottom (#3610). After a 24 h incubation period at 37° C. and 5% CO2, the medium was exchanged by adding 90 μL fresh medium. The treatment started by adding the test compound in 10 μL of culture medium to the cells in triplicates. Concentrations ranging from 10^−5 M to 10^−13 M were chosen. Two identically treated sets of samples were prepared. One set was treated with the test compound alone, whereas to the second set the compound and 10 nM elastase was added followed by a 72 h incubation period at 37° C. and 5% CO2. The proliferation was detected using the MTT assay (ATCC). At the end of the incubation period the MTT reagent was added to all samples for 4h. Lysis of the cells followed by addition of the detergent was done overnight. The formed dye was detected at 570 nm. The proliferation of untreated but otherwise identically handled cells was define as the […].

In series [2] the test system is HT29. The series is described as above. It is filed as cell-based, human. The conditions noted are these: HT29 cells, 72 h. The protocol:
as §1

The subject of series [3] is NCI H292. The description is as above. Type of series: cell-based, human. The following applies: NCI H292 cells, 72 h. The procedure:
as §1

Series [4] deals with SUM149. The series is described as above. The following applies: SUM149 cells, 72 h. Type of series: cell-based. The procedure: as §1
The nature of series [5]: Compound stability in rat plasma. It is filed as in vitro ADME. The conditions noted are these: rat plasma at 37° C., 4-hour assay; for ester cleavage in rat plasma: detected by LC-MS. The protocol:
(§2) Compound B1, Compound C2, and Compound C3 were evaluated for stability in plasma and/or buffer. Compound B1 was stable in rat plasma at 37° C. (FIG. 1 panel (a)) and in buffer at pH 7.4 (FIG. 1 panel (b)) for the duration of the 4-hour assay.
Method for measurement of stability in rat and human plasma: 1 mg of the test compound is dissolved in 0.5 ml acetonitrile/dimethylsulfoxide 1:1. For complete dissolution the HPLC vial is shaken and sonicated. While vortexing 20 μl of this solution are added to 1 ml 37° C. warm plasma. After 0.17, 0.5, 1, 1.5, 2 and 4 hours the enzymatic reaction is stopped by adding 100 μl of the compound plasma solution to a vial containing 300 μl acetonitrile/buffer pH3 (80:20) at RT. The mixture is centrifuged at 5000 rpm for 10 minutes. The supernatant is analyzed by HPLC to determine the amount of the test compound and up to two byproducts. To values result from a processed sample immediately taken after vortexing with plasma at RT. The peak areas (in percentage) are used for quantification. All data is given as percent area of the initial compound at to.

The nature of series [6]: Compound stability in buffer. Type of series: physicochemical. The conditions noted are these: for release of free payload in buffer: buffer at pH 4, within 24 hours. The procedure:
as §2
Method for measurement of stability in buffer: 0.15 mg of the test compound are solved in 0.1 ml dimethylsulfoxide and 0.4 ml acetonitrile. For complete dissolution the HPLC vial with the sample solution is shaken and sonicated. Then 1.0 ml of the respective buffer solution is added, and the sample is vortexed. The sample solution is analysed by HPLC to determine the amount of the test compound and up to two byproducts at a particular time over a period of 24 h at 37° C. to values result from a sample immediately taken after vortexing with buffer at RT. The peak areas (in percentage) are used for quantification.

As usually defined, the IC50 is the concentration that inhibits the measured activity by half. Low readings indicate greater potency, high ones weaker potency. With `CCCNC(=O)Nc1cccc(S(=O)(=O)Nc2cccc([C@@H](CC(=O)O)NC(=O)Nc3ccc(NC(=O)N(C)CCN(C)CCN(C)CC(=O)N[C@@H](CC(N)=O)C(=O)N4CCC[C@H]4C(=O)N[C@H](C(=O)O[C@]4(CC)C(=O)OCc5c4cc4n(c5=O)Cc5c-4nc4ccccc4c5CC)C(C)C)cc3)c2)c1` [Compound B1, (4S)-4,11-diethyl-3,14-dioxo-3,4,12,14-tetrahydro-1H-pyrano[3′,4′:6,7]indolizino[1,2-b]quinolin-4-yl N-{2-[{2-[({4-[({(1R)-2-carboxy-1-[3-({3-[(propylcarbamoyl)amino]benzene-1-sulfonyl}amino)phenyl]ethyl}carbamoyl)amino]phenyl}carbamoyl)(methyl)amino]ethyl} (methyl)amino]ethyl}-N-methylglycyl-L-asparaginyl-L-prolyl-L-valinate], the half-maximal inhibitory concentration (IC50) in series [1] (compound alone (no elastase)) is 10 to 100 nM; in series [1] (with 10 nM elastase) it was 0.1 to 1 nM; in series [2] (compound alone (no elastase)) it was more than 100 nM; in series [2] (with 10 nM elastase), 0.1 to 1 nM; in series [3] (compound alone (no elastase)) it was 10 to 100 nM; in series [3] (with 10 nM elastase), 0.1 to 1 nM. The IC50 lay in the range of 10 to 100 nM in series [4] (compound alone (no elastase)) and 0.01 to 0.1 nM in series [4] (with 10 nM elastase). In addition, in series [5], the “stability in rat plasma” value is “stable”. Moreover, the “stability in buffer at pH 7.4” value in series [6] (buffer pH 7.4, 4-hour assay) is “stable”.

Regarding `CCCNC(=O)Nc1cccc(S(=O)(=O)Nc2cccc([C@@H](CC(=O)O)NC(=O)Nc3ccc(NC(=O)NCCOCCOCCOCCC(=O)N[C@@H](CC(=O)OCCCN(C)C)C(=O)N4CCC[C@H]4C(=O)N[C@H](C(=O)O[C@]4(CC)C(=O)OCc5c4cc4n(c5=O)Cc5c-4nc4ccccc4c5CC)C(C)C)cc3)c2)c1` [Compound C2, (3R)-3-[({4-[({(9S)-9-[(2S)-2-{[(2S)-1-{[(4S)-4,11-diethyl-3,14-dioxo-3,4,12,14-tetrahydro-1H-pyrano[3′,4′:6,7]indolizino[1,2-b]quinolin-4-yl]oxy}-3-methyl-1-oxobutan-2-yl]carbamoyl}pyrrolidine-1-carbonyl]-2-methyl-7,11-dioxo-6,14,17,20-tetraoxa-2,10-diazadocosan-22-yl}carbamoyl)amino]phenyl}carbamoyl)amino]-3-[3-({3-[(propylcarbamoyl)amino]benzene-1-sulfonyl}amino)phenyl]propanoic acid], the IC50 in series [1] (compound alone (no elastase)) is 10 to 100 nM; in series [1] (with 10 nM elastase) it was 0.1 to 1 nM; in series [2] (compound alone (no elastase)), 1.1 to 10 nM; in series [2] (with 10 nM elastase), 0.1 to 1 nM; in series [3] (compound alone (no elastase)) it was 10 to 100 nM; in series [3] (with 10 nM elastase), 0.1 to 1 nM. Besides, the IC50 was 0.1 to 1 nM in series [4] (compound alone (no elastase)) and 0.01 to 0.1 nM in series [4] (with 10 nM elastase). Also, the “ester cleavage in rat plasma” value in series [5] was “slow ester cleavage and release of the aspartate moiety”. In series [6], the “release of free payload in buffer” value was “No release of free payload is detected”.

With `CCCNC(=O)Nc1cccc(S(=O)(=O)Nc2cccc([C@@H](CC(=O)O)NC(=O)Nc3ccc(NC(=O)NCCOCCOCCOCCC(=O)N[C@@H](CC(=O)OCCCCN(C)C)C(=O)N4CCC[C@H]4C(=O)N[C@H](C(=O)O[C@]4(CC)C(=O)OCc5c4cc4n(c5=O)Cc5c-4nc4ccccc4c5CC)C(C)C)cc3)c2)c1` [Compound C3, (3R)-3-[({4-[({(10S)-10-[(2S)-2-{[(2S)-1-{[(4S)-4,11-Diethyl-3,14-dioxo-3,4,12,14-tetrahydro-1H-pyrano[3′,4′:6,7]indolizino[1,2-b]quinolin-4-yl]oxy}-3-methyl-1-oxobutan-2-yl]carbamoyl}pyrrolidine-1-carbonyl]-2-methyl-8,12-dioxo-7,15,18,21-tetraoxa-2,11-diazatricosan-23-yl}carbamoyl)amino]phenyl}carbamoyl)amino]-3-[3-({3-[(propylcarbamoyl)amino]benzene-1-sulfonyl}amino)phenyl]propanoic acid], the IC50 in series [1] (compound alone (no elastase)) lay within 10 to 100 nM; in series [1] (with 10 nM elastase), 0.1 to 1 nM; in series [2] (compound alone (no elastase)), 10 to 100 nM; in series [2] (with 10 nM elastase) it was 0.1 to 1 nM; in series [3] (compound alone (no elastase)), 10 to 100 nM; in series [3] (with 10 nM elastase), 0.1 to 1 nM. Moreover, the results for the IC50 in series [4] (compound alone (no elastase)) and in series [4] (with 10 nM elastase) were 1.1 to 10 nM and 0.01 to 0.1 nM, respectively. Besides, in series [5], the “ester cleavage in rat plasma” value is “slow ester cleavage and release of the aspartate moiety”. For the same compound, the “release of free payload in buffer” value in series [6] is “No release of free payload is detected”.
